Values quoted from earlier work in patent US20160052938A1, “SPIRO[3H-INDOLE-3,2'-PYRROLIDIN]-2(1H)-ONE COMPOUNDS AND DERIVATIVES AS MDM2-P53 INHIBITORS” (Boehringer Ingelheim International GmbH, priority 2014, published 2016).

Tested on: acute lymphoblastic leukemia (ALL) xenograft models with mixed-lineage leukemia (MLL) rearrangement
Conditions: Carol et al. 2013; cited from earlier work

For CCOc1cc(C(C)(C)C)ccc1C1=N[C@@](C)(c2ccc(Cl)cc2)[C@@](C)(c2ccc(Cl)cc2)N1C(=O)N1CCN(CCCS(C)(=O)=O)CC1 [RG-7112], the efficacy is given as “particularly efficacious”.
